Results: US8901138B2, “Sulfoximine substituted quinazolines for pharmaceutical compositions” (Boehringer Ingelheim International GmbH, priority 2012, dated 2014)

Key:
[1] = molecular target: T1, MNK2a (Homo sapiens, UniProt Q9HBH9); assay: MNK2a in vitro kinase assay (assay 1), ADP-Glo; type: biochemical; conditions: preactivated GST-MNK2a, 20 μM ATP, read-out: MNK2 IC50
T1 construct: made in house
Description: A. MNK2a In Vitro Kinase Assay (Assay 1)
ASSAY SETUP: The inhibition of kinase activity of MNK2a was assessed using preactivated GST-MNK2a. The white, 384-well OptiPlate F plates were purchased from Perkin Elmer. The ADP-Glo Kinase Assay (including ultra pure ATP) was purchased from Promega (V9103). Activated MNK2a was obtained as described in WO2011/104340. The unlabeled eIF4E peptide (NH2-[…]—CONH2) (SEQ ID NO: 1), differing from Seq. ID No. 5 of WO 2011/104340 by the C-terminal —CONH2 group, was purchased from Thermo Fisher Scientific. All other materials were of highest grade commercially available. Compounds are tested in either serial dilutions or single dose concentrations. The compound stock solutions are 10 mM in 100% DMSO The serial compound dilutions are prepared in 100% DMSO followed by 1:27.3 intermediate dilution in assay buffer. The final DMSO concentration in assay will be <3%. In the 384-well plates 3 μl of test compound from the intermediate dilution is mixed with 4 μl of the activated MNK2 enzyme (final concentration of 10 nM) and 4 μl of the peptide (final concentration of 25 μM)/ultra pure ATP (final concentration of 20 μM), all dissolved in assay buffer. This step is followed by an incubation time of 90 min, then 10 μl of ADP Glo reagent are added, followed by 40 min of incubation. Then 20 μl of kinase detection reagent are admixed. The plates are sealed and after an incubation period of 30 min, the luminescence signal is measured in an Envision reader to determine the amount of produced ADP. All incubation steps are performed at room temperature. The assay buffer consists of 20 mM HEPES, 2 mM DTT, 0.01% BSA, 20 mM MgCl2 and 0.1% Pluronic F-127.
Each assay microtiter plate contains wells with vehicle controls instead of compound (1% DMSO in water) as reference for the high signal (100% CTL, high signal), and wells containing a potent MNK2 inhibitor (final 20 μM, 1% DMSO) as reference for low signal (0% CTL, low signal).
The luminescent signal generated is proportional to the ADP concentration produced and is correlated with activated MNK2 activity. The analysis of the data is performed by the calculation of the percentage of ATP consumption of activated MNK2 in the presence of the test compound compared to the consumption of ATP in the presence of activated MNK2 without compound. (RLU(sample)−RLU(low control))*100/(RLU(high value)−RLU(low control)) [RLU=relative luminescence units]
An inhibitor of the MNK2 enzyme will give values between 100% CTL (no inhibition) and 0% CTL (complete inhibition). Values of more than 100% CTL are normally related to compound/sample specific physico-chemical properties (e.g. solubility, light absorbance, fluorescence).
IC50 values based on dose response curves are calculated with the AssayExplorer software.

[2] = molecular target: MNK1a (Homo sapiens, UniProt Q9BUB5); assay: MNK1 in vitro kinase assay (assay 2), Z'-LYTE; type: biochemical; conditions: for IC50: pre-activated GST-MNK1a; for inhibition at 1 µM: compound concentration of 1 μM
Source text: B. MNK1 In Vitro Kinase Assay (Assay 2)
MNK1 Data can be obtained from the MNK1 Z′-LYTE® assay. The MNK1 Z′-LYTE® screening protocol and assay conditions are also described on www.invitrogen.com.
The assay is described as follows:
The Z′-LYTE® biochemical assay employs a fluorescence-based, coupled-enzyme format and is based on the differential sensitivity of phosphorylated and non-phosphorylated peptides to proteolytic cleavage. The peptide substrate is labeled with two fluorophores—one at each end—that make up a FRET pair.
In the primary reaction, the kinase transfers the gamma-phosphate of ATP to a single tyrosine, serine or threonine residue in a synthetic FRET-peptide. In the secondary reaction, a site-specific protease recognizes and cleaves non-phosphorylated FRET-peptides. Phosphorylation of FRET-peptides suppresses cleavage by the Development Reagent. Cleavage disrupts FRET between the donor (i.e., coumarin) and acceptor (i.e., fluorescein) fluorophores on the FRET-peptide, whereas uncleaved, phosphorylated FRET-peptides maintain FRET. A ratiometric method, which calculates the ratio (the Emission Ratio) of donor emission to acceptor emission after excitation of the donor fluorophore at 400 nm, is used to quantitate reaction progress, as shown in the equation below. Emission Ratio=Coumarin Emission(445 nm)/Fluorescein Emission(520 nm)
ASSAY SETUP: The inhibition of kinase activity of MNK1a was assessed using pre-activated GST-MNK1a. The 2×MKNK1 (MNK1) mixture is prepared in 50 mM HEPES pH 7.5, 0.01% BRIJ-35, 10 mM MgCl2, 4 mM MnCl2, 1 mM EGTA, 2 mM DTT. The final 10 μL Kinase Reaction consists of 13.5-54 ng MKNK1 (MNK1) and 2 μM Ser/Thr 07 in 50 mM HEPES pH 7.5, 0.01% BRIJ-35, 10 mM MgCl2, 2 mM MnCl2, 1 mM EGTA, 1 mM DTT. After the 1 hour Kinase Reaction incubation, 5 μL of a 1:32768 dilution of Development Reagent A is added.
The Test Compounds are screened in 1% DMSO (final) in the well.
All Peptide/Kinase Mixtures are diluted to a 2× working concentration in the MNK1 Kinase Buffer.
All ATP Solutions are diluted to a 4× working concentration in Kinase Buffer (50 mM HEPES pH 7.5, 0.01% BRIJ-35, 10 mM MgCl2, 1 mM EGTA).
Development Reagent Solution:
The Development Reagent is diluted in Development Buffer
Bar-coded Corning, low volume NBS, 384-well plate (Corning Cat. #3676)
1. 2.5 μL-4× Test Compound
2. 5 μL-2× Peptide/Kinase Mixture
5. 60-minute Kinase Reaction incubation at room temperature
6. 5 μL-Development Reagent Solution
8. 60-minute Development Reaction incubation at room temperature
9. Read on fluorescence plate reader and analyze the data
The following equations are used for each set of data points: […]
Correction for Background Fluorescence: FSample−FITCFl Ctl
Emission Ratio (using values corrected for background fluorescence):Coumarin
Emission (445 nm)/Fluorescein Emission (520 nm)
% Phosphorylation (% Phos): 1−((Emission Ratio×F100%)−C100%)/((C0%−C100%)+[Emission Ratio×(F100%−F0%)])*100 % Inhibition: 1−(% PhosSample/% Phos0% Inhibition Ctl)*100 FI=Fluorescence Intensity C100%=Average Coumarin emission signal of the 100% Phos. Control C0%=Average Coumarin emission signal of the 0% Phos. Control F100%=Average Fluorescein emission signal of the 100% Phos. Control F0%=Average Fluorescein emission signal of the 0% Phos. Control Graphing Software
SelectScreen® Kinase Profiling Service uses XLfit from IDBS. The dose response curve is curve fit to model number 205 (sigmoidal dose-response model).

Chain of MNK1a (Q9BUB5 1-424 isoform Q9BUB5-2): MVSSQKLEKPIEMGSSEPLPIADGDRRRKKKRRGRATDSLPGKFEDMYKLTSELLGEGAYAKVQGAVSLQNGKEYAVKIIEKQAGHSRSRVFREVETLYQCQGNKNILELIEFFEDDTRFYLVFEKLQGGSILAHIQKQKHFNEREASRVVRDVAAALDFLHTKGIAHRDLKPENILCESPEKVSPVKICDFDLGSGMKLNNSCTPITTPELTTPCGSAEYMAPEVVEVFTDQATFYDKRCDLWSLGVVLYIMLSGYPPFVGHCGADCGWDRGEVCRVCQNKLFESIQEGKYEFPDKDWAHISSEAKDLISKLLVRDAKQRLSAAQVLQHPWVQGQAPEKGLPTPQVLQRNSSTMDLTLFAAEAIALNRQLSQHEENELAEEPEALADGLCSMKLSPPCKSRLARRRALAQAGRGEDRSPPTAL
T1 sequence (Q9HBH9 whole entry): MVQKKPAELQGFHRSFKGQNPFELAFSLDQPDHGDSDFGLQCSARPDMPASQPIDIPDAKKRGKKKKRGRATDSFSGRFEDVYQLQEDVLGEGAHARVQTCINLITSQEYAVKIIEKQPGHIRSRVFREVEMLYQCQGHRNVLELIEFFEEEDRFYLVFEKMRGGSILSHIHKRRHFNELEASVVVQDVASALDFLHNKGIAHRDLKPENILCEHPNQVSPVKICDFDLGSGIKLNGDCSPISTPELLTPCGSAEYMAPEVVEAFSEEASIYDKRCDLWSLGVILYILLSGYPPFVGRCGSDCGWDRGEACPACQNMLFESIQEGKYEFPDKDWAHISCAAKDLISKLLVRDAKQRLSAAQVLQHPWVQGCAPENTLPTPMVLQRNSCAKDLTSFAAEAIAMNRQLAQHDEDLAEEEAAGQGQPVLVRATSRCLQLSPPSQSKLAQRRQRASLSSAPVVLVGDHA

IC50 [1] | IC50 [2] | inhibition at 1 µM [2] | Compound
1 nM | 11 nM | – | COc1cc(N=S(C)(C)=O)cc2ncnc(Nc3ccc(F)cc3O[C@@H]3CO[C@H]4[C@@H]3OC[C@H]4OC)c12 [Example 2.1]
4 nM | – | 95% | Cc1cc(N=S2(=O)CCOCC2)cc2ncnc(Nc3ccc(F)cc3O[C@@H]3CO[C@H]4[C@@H]3OC[C@H]4O)c12 [Example 2.2]
5 nM | – | 89% | Cc1cc(N=S2(=O)CCOCC2)cc2ncnc(Nc3ccc(F)cc3O[C@H]3CCOC3)c12 [Example 2.3]
4 nM | – | 97% | Cc1cc(N=S2(=O)CCCC2)cc2ncnc(Nc3cccnc3O[C@@H]3CO[C@H]4[C@@H]3OC[C@H]4O)c12 [Example 2.4]
4 nM | – | 92% | Cc1cc(N=S(C)(C)=O)cc2ncnc(Nc3cccnc3OC3CCOCC3)c12 [Example 2.6]
1 nM | – | 98% | CCO[C@@H]1CO[C@H]2[C@@H]1OC[C@H]2Oc1cc(F)ccc1Nc1ncnc2cc(N=S(C)(C)=O)cc(C)c12 [Example 2.7]
44 nM | – | 64% | Cc1cc(N=S2(=O)CCCC2)cc2ncnc(Nc3ccsc3O[C@@H]3CCOC3)c12 [Example 2.8]
4 nM | – | 92% | Cc1cc(N=S(C)(C)=O)cc2ncnc(Nc3cccnc3O[C@H]3CC[C@H](NC(=O)OC(C)(C)C)CC3)c12 [Example 2.10]
6 nM | – | 92% | Cc1cc(N=S(C)(=O)c2ccccn2)cc2ncnc(Nc3ccc(F)cc3O[C@@H]3CO[C@@H]4CCO[C@@H]43)c12 (stereo partly shown) [Example 2.11]
13 nM | – | 24% | CCS(=O)(CC)=Nc1cc(C)c2c(Nc3ccc(F)cc3O[C@H]3CC[C@H](OC)CC3)ncnc2c1 [Example 2.12]
39 nM | – | 73% | CC(C)(C)OC(=O)N1CCC[C@@H](Oc2cc(F)ccc2Nc2ncnc3cc(N=S(C)(C)=O)cc(F)c23)C1 [Example 2.13]
9 nM | – | 52% | CO[C@H]1CC[C@H](Oc2cc(F)ccc2Nc2ncnc3cc(N=S4(=O)CCN(C(=O)OC(C)(C)C)CC4)cc(C)c23)CC1 [Example 2.14]
7 nM | – | 72% | CC(C)(C)OC(=O)N[C@H]1CC[C@H](Oc2ncccc2Nc2ncnc3cc(N=S(C)(C)=O)cc(F)c23)CC1 [Example 2.15]
10 nM | – | 94% | Cc1cc(N=S(C)(C)=O)cc2ncnc(Nc3ccc(C(N)=O)cc3OC3CCOCC3)c12 [Example 2.16]
4 nM | – | 91% | CO[C@H]1CC[C@H](Oc2cc(F)ccc2Nc2ncnc3cc(N=S4(=O)CCOCC4)cc(C)c23)CC1 [Example 2.17]
52 nM | – | 66% | Cc1cc(N=S(C)(C)=O)cc2ncnc(Nc3cccnc3O[C@@H]3CCCN(C(=O)OC(C)(C)C)C3)c12 [Example 2.23]

Continued, compound first:

Compound | IC50 [1] | IC50 [2] | inhibition at 1 µM [2]
CO[C@@H]1CO[C@H]2[C@@H]1OC[C@H]2Oc1cc(F)ccc1Nc1ncnc2cc(N=S(C)(C)=O)cc(OC(F)F)c12 [Example 1.24] | 1 nM | 18 nM | –
CS(C)(=O)=Nc1cc(OC2CC2)c2c(Nc3ccc(F)cc3O[C@H]3CCOC3)ncnc2c1 [Example 1.25] | 48 nM | – | 66%
O=S1(=Nc2cc(Cl)c3c(Nc4ccc(F)cc4O[C@H]4CCOC4)ncnc3c2)CCC1 [Example 1.26] | 2 nM | – | 100%
O=S1(=Nc2cc(Cl)c3c(Nc4ccc(F)cc4O[C@@H]4CO[C@@H]5CCO[C@@H]54)ncnc3c2)CCC1 [Example 1.27] | 1 nM | 11 nM | –
Cc1cc(N=S(C)(C)=O)cc2ncnc(Nc3ccc(F)cc3OC3(C)CC3)c12 [Example 1.28] | 4 nM | – | 89%
Cc1cc(N=S(C)(C)=O)cc2ncnc(Nc3ccc(F)cc3OC3(C)CCC3)c12 [Example 1.29] | 2 nM | – | 92%
Cc1cc(N=S(C)(C)=O)cc2ncnc(Nc3ccc(F)cc3OC3(C(F)(F)F)CCC3)c12 [Example 1.30] | 2 nM | – | 89%
Cc1cc(N=S(C)(C)=O)cc2ncnc(Nc3ccc(F)cc3OC3(C)COC3)c12 [Example 1.31] | 13 nM | – | 87%
Cc1cc(N=S(C)(C)=O)cc2ncnc(Nc3ccc(F)cc3OC3(C)CCOC3)c12 (stereo not shown) [Example 1.32] | 7 nM | 149 nM | –
Cc1cc(N=S(C)(C)=O)cc2ncnc(Nc3ccc(F)cc3OC3(C)CC3C)c12 (stereo not shown) [Example 1.33] | 2 nM | 110 nM | –
Cc1cc(N=S(C)(C)=O)cc2ncnc(Nc3ccc(F)cc3OC3CC(O)C3(C)C)c12 (stereo not shown) [Example 1.35] | 5 nM | – | 85%
CO[C@@H]1CCC[C@H]1Oc1cc(F)ccc1Nc1ncnc2cc(N=S(C)(C)=O)cc(C)c12 [Example 1.36] | 2 nM | – | 84%
Cc1cc(N=S(C)(C)=O)cc2ncnc(Nc3cccnc3O[C@H]3CCCNC3)c12 [Example 1.37] | 4 nM | 28 nM | –
Cc1cc(N=S(C)(C)=O)cc2ncnc(Nc3ccc(C#N)nc3OC3CCOCC3)c12 [Example 1.38] | 12 nM | – | 99%
Cc1cc(N=S(C)(C)=O)cc2ncnc(Nc3ccc(F)nc3O[C@H]3CCOC3)c12 [Example 1.40] | 3 nM | – | 94%
Cc1cc(N=S(C)(C)=O)cc2ncnc(Nc3ccc(Cl)nc3O[C@H]3CCOC3)c12 [Example 1.41] | 3 nM | 74 nM | –
